Earlier results as cited in patent US20050038473A1, “Device and method for the treatment of pilosebaceous disorders” (priority 2003, published 2005).
Like-named read-outs stand apart in the source and are kept apart here. Each block holds one molecule with its values, some of them ahead of it.

What was measured:
[1] = test system: hair follicles
[2] = test system: in-vitro hair follicle cultures; conditions: 5-alpha-reductase blocker, versus finasteride
[3] = target: T1, androgen receptors (Homo sapiens, UniProt P10275); conditions: compared with testosterone
T1 sequence (P10275 1-920): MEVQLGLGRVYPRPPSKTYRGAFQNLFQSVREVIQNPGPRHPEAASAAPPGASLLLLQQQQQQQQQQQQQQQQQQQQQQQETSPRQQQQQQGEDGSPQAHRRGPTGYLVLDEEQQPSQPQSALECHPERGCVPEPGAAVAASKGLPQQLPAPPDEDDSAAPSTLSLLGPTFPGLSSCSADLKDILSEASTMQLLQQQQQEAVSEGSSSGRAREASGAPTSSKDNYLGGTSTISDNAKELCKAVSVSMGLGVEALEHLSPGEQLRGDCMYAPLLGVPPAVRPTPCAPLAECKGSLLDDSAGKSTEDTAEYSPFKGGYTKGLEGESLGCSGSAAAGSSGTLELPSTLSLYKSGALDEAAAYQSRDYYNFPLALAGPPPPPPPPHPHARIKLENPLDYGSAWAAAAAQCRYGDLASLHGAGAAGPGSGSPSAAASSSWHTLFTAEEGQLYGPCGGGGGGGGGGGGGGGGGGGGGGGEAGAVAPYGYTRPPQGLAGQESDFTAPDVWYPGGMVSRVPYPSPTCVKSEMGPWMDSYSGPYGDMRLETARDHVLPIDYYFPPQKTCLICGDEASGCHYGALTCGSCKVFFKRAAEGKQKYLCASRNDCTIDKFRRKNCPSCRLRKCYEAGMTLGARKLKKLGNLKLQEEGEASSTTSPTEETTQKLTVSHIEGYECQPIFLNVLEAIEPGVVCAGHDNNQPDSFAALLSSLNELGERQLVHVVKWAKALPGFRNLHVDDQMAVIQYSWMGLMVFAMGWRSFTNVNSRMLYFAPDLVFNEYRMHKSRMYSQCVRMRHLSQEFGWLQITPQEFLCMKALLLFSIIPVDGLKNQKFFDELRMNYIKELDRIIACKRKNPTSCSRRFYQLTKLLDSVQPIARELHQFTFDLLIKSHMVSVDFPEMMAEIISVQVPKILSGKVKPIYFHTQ

[4] = test system: idiopathic hirsutism; conditions: women with idiopathic hirsutism taking flutamide

SMILES: C=C1/C(=C\C=C2/CCC[C@]3(C)[C@@H]([C@H](C)CCCC(C)(C)O)CC[C@@H]23)C[C@@H](O)C[C@@H]1O [1,25-dihydroxyvitamin D3]
effect on hair and hair follicle growth ([1]; high concentration (100 nM) and after longer contact): inhibits
effect on hair and hair follicle growth ([1]; low concentration (1-10 nM), direct contact with hair follicles): stimulates

SMILES: CCN(CC)C(=O)[C@H]1CC[C@H]2[C@@H]3CC[C@H]4N(C)C(=O)CC[C@]4(C)[C@H]3CC[C@]12C [17-beta-N,N-diethylcarbamyl-4-methyl-4-aza-5-androstan-3-one]
effect on in-vitro hair follicle cultures compared with finasteride [2]: greater effect

SMILES: CN1C(=S)N(c2ccc(C#N)c(C(F)(F)F)c2)C(=O)C1(C)C [RU 56187]
affinity for androgen receptors relative to the affinity of testosterone [3]: three times higher

SMILES: CC1(C)C(=O)N(c2ccc(C#N)c(C(F)(F)F)c2)C(=S)N1CCCCO [RU 59063]
affinity for androgen receptors relative to the affinity of testosterone [3]: three times higher

disturbance of plasma levels of gonadotropins, testosterone, androstenedione or dehydroepiandrostenedione [4]: without disturbance
SMILES: CC(C)C(=O)Nc1ccc([N+](=O)[O-])c(C(F)(F)F)c1 [flutamide]
